Laboratory results: patent US8790687B2, “Triterpene compounds which are effective on improvement of brain function” (priority 2003, dated 2014)

Key:
[1] = system: mice; experiment: Passive avoidance test, scopolamine-induced memory failure; assay type: in vivo; settings: scopolamine (1 mg/kg) group = 0%; for memory improvement / prevention activity to memory failure: passive avoidance latency, control without scopolamine and drugs = 100%, oral single administration, dose of compound not given
From the text: A shuttle box (50×15×40 cm) was used as an experimental device. The box was divided into two rooms by a guillotine door, where one of which was bright by illumination while the other was dark by black cloth, giving rise to two different illumination effects. Firstly, mice were placed into a bright room, the bright room was kept lighted and the guillotine door was kept open. The mice entered the dark room in 20 sec in accordance with their negative phototaxis and the guillotine door was kept closed upon the entrance. The latency period in which a mouse enters the dark room from the bright room was measured in a manner described above. On the first day of the test, all mice were subject to a training trial for 20-sec latency period. Next day, mice subject to the training trial were again placed in the bright room and the bright room was then kept lighted to render mice to enter the dark room. At this time, the electric shock of 0.8 mA was imposed for 3 sec by using an electric grid equipped on the bottom of the dark room to impose the electric shock on the sole of mice feet. After 24 hr of such acquisition trial, mice were again placed in the bright room and the bright room was then kept lighted to induce mice to enter the dark room. At this time, normal mice hesitated to enter the dark room due to the memory about the shock of the previous day. […] The control not subject to the administration of scopolamine and drugs was considered 100% and the group subject to the administration of scopolamine (1 mg/kg), known to result in the failure of memory through the inhibition of transmission of neurotransmitters, was considered 0%.

[2] = in vivo; settings: male, ICR, mouse, in vivo, po
From the text: (§1) Furthermore, for 2 weeks after the administration, the death rate, general conditions and body weight of mice were examined and abnormality of organs was observed via autopsy.

[3] = system: ICR mice; experiment: in vivo; settings: oral; for disorders (general conditions): all dosages (2.0 g/kg, 680, 230, 75 mg/kg); for disorders (general conditions) / results of autopsy (abnormality of organs): ICR mice; for results of autopsy (abnormality of organs): autopsy after 2 weeks observation, versus control group; for LD10: seven times in 1 week, male ICR mice, observed 2 weeks
From the text: as §1

SMILES	memory improvement / prevention activity to memory failure [1] [%]	LD50 [2] [mg/kg]	disorders (general conditions) [3]	results of autopsy (abnormality of organs) [3]	LD10 [3] [mg/kg]	prevention efficacy to memory failure ([1]; positive control, oral administration 30 mg/kg, control = 100%) [%]
CC1(C)CCC2(C(=O)O)CCC3(C)C(=CCC4C5(C)CCC(O)C(C)(CO)C5CCC43C)C2C1 (stereo not drawn) [hederagenine]	41.1	≥ 5000	no disorders	not different from the control group	750	
CC1(C)CC[C@]2(C(=O)O)CC[C@]3(C)C(=CC[C@@H]4[C@@]5(C)CC[C@H](O)C(C)(C)[C@@H]5CC[C@]43C)[C@@H]2C1 [oleanolic acid]	43.3	≥ 5000		not different from the control group	750	
Nc1c2c(nc3ccccc13)CCCC2 [tacrine, reference compound]						35
C[C@H]1[C@H](C)CC[C@]2(C(=O)O)CC[C@]3(C)C(=CC[C@@H]4[C@@]5(C)CC[C@H](O)C(C)(C)[C@@H]5CC[C@]43C)[C@H]12 [ursolic acid]	37.0	≥ 5000	no disorders	not different from the control group	750	
